# Laboratory results published in publication PMC10320843 (2023).
# Columns and labels:
# [1] = system: F21T (DNA, G4) GGGTTAGGGTTAGGGTTAGGG; assay: FRET-melting; conditions: K+ (CacoK10, Table S1); CacoK10 buffer; 1 μM compound, 0.2 μM nucleic acid; no competitor
# [2] = system: F-Myc-T (DNA, G4) GAGGGTGGGGAGGGTGGGGAAG; assay: FRET-melting; conditions: K+ (CacoK1, Table S1); CacoK1 buffer; 1 μM compound, 0.2 μM nucleic acid; no competitor
# [3] = system: F-Kit2-T (DNA, G4) CGGGCGGGCGCGAGGGAGGGG; assay: FRET-melting; conditions: buffer not stated in main text
# [4] = system: F-TERRA-T (RNA, G4) GGGUUAGGGUUAGGGUUAGGG; assay: FRET-melting; conditions: K+ (CacoK1, Table S1); CacoK1 buffer; 1 μM compound, 0.2 μM nucleic acid; no competitor
# [5] = system: F-VEGF-T (RNA, G4) GGAGGAGGGGAGGAGGA; assay: FRET-melting; conditions: K+ (CacoK1, Table S1); CacoK1 buffer; 1 μM compound, 0.2 μM nucleic acid; no competitor
# [6] = system: F-NRAS-T (RNA, G4) GGGAGGGGCGGGUCUGGG; assay: FRET-melting; conditions: 1 μM compound, 0.2 μM RNA; no competitor; buffer not stated
# [7] = system: 5'Cy5-Myc (DNA, G4) GAGGGTGGGGAGGGTGGGGAAG; assay: Cy5 fluorescence quenching titration; conditions: 50 mM TrisHCl/Triton buffer (Table S1), 25 °C; 20 nM DNA; apparent
# [8] = system: F-22AG (DNA, G4) AGGGTTAGGGTTAGGGTTAGGG; assay: streptavidin bead pull-down, FAM fluorescence; conditions: Mg2+ (concentration in Table S1); 20 mM TrisHCl/MgCl2 buffer, 25 °C; 10 μM compound, 1 μM nucleic acid; no TASQ = 1
# [9] = system: F-Myc (DNA, G4) GAGGGTGGGGAGGGTGGGGAAG; assay: streptavidin bead pull-down, FAM fluorescence; conditions: Mg2+ (concentration in Table S1); 20 mM TrisHCl/MgCl2 buffer, 25 °C; 10 μM compound, 1 μM nucleic acid; no TASQ = 1
# [10] = system: F-duplex (DNA, hairpin) TATAGCTATATTTTTTTATAGCTATA; assay: streptavidin bead pull-down, FAM fluorescence; conditions: Mg2+ (concentration in Table S1); 20 mM TrisHCl/MgCl2 buffer, 25 °C; 10 μM compound, 1 μM DNA; no TASQ = 1
# [11] = system: F-TERRA (RNA, G4) GGGUUAGGGUUAGGGUUAGGG; assay: streptavidin bead pull-down, FAM fluorescence; conditions: Mg2+ (concentration in Table S1); 20 mM TrisHCl/MgCl2 buffer, 25 °C; 10 μM compound, 1 μM nucleic acid; no TASQ = 1
# [12] = system: F-VEGF (RNA, G4) GGAGGAGGGGAGGAGGA; assay: streptavidin bead pull-down, FAM fluorescence; conditions: Mg2+ (concentration in Table S1); 20 mM TrisHCl/MgCl2 buffer, 25 °C; 10 μM compound, 1 μM nucleic acid; no TASQ = 1
# [13] = system: F-NRAS (RNA, G4) GGGAGGGGCGGGUCUGGG; assay: streptavidin bead pull-down, FAM fluorescence; conditions: Mg2+ (concentration in Table S1); 20 mM TrisHCl/MgCl2 buffer, 25 °C; 10 μM compound, 1 μM nucleic acid; no TASQ = 1
# [14] = system: G4-strand (97-nt ODN) (DNA, G4) TAGCCATTCAGCCGTAACAGGCAGTGGAAGAGAGACAGACAGGGCAGGGCAGGGCAGGGCAGTACAGTAGAACCTAATGGTGTTTGATGGTATCTAA; assay: streptavidin bead pull-down, qPCR (SYBR green); conditions: 40 μM compound, 4 μM DNA; fluorescence difference from no TASQ
ΔT1/2 [1],ΔT1/2 [2],ΔT1/2 [3],ΔT1/2 [4],ΔT1/2 [5],ΔT1/2 [6],appKD [7],fold enrichment [8],fold enrichment [9],fold enrichment [10],fold enrichment [11],fold enrichment [12],fold enrichment [13],ΔFI [14],Compound
2.2 ± 0.3 °C,6.4 ± 0.2 °C,7.7 ± 1.0 °C,12.4 ± 0.6 °C,11.3 ± 0.4 °C,14.6 ± 1.1 °C,0.90 ± 0.1 µM,–,–,–,–,–,–,–,[N-]=[N+]=NCCCCCC(=O)NCC1CN(CCCCCNC(=O)CN(CCN)C(=O)Cn2cnc3c(=O)[nH]c(N)nc32)CCN(CCCCCNC(=O)CN(CCN)C(=O)Cn2cnc3c(=O)[nH]c(N)nc32)CCN(CCCCCNC(=O)CN(CCN)C(=O)Cn2cnc3c(=O)[nH]c(N)nc32)CCN1CCCCCNC(=O)CN(CCN)C(=O)Cn1cnc2c(=O)[nH]c(N)nc21 (centres unmarked)
2.5 ± 0.2 °C,5.3 ± 0.3 °C,5.8 ± 0.2 °C,11.0 ± 0.9 °C,11.9 ± 0.4 °C,11.8 ± 0.7 °C,1.44 ± 0.1 µM,–,–,–,–,–,–,–,C#CCCCC(=O)NCC1CN(CCCCCNC(=O)CN(CCN)C(=O)Cn2cnc3c(=O)[nH]c(N)nc32)CCN(CCCCCNC(=O)CN(CCN)C(=O)Cn2cnc3c(=O)[nH]c(N)nc32)CCN(CCCCCNC(=O)CN(CCN)C(=O)Cn2cnc3c(=O)[nH]c(N)nc32)CCN1CCCCCNC(=O)CN(CCN)C(=O)Cn1cnc2c(=O)[nH]c(N)nc21 (centres unmarked)
–,–,–,–,–,–,0.0577 ± 0.0002 µM,–,–,–,–,–,–,–,C[n+]1cc(NC(=O)c2ccc3ccc4ccc(C(=O)Nc5cc6ccccc6[n+](C)c5)nc4c3n2)cc2ccccc21
–,–,–,–,–,–,1.01 ± 0.1 µM,15.9 ± 0.9 fold,21.5 ± 0.1 fold,0.9 ± 0.2 fold,4.0 ± 0.0 fold,8.2 ± 0.2 fold,5.2 ± 0.9 fold,457,NCCN(CC(=O)NCCCCCN1CCN(CCCCCNC(=O)CN(CCN)C(=O)Cn2cnc3c(=O)[nH]c(N)nc32)CCN(CCCCCNC(=O)CN(CCN)C(=O)Cn2cnc3c(=O)[nH]c(N)nc32)C(CNC(=O)CCCC[C@@H]2SC[C@@H]3NC(=O)N[C@@H]32)CN(CCCCCNC(=O)CN(CCN)C(=O)Cn2cnc3c(=O)[nH]c(N)nc32)CC1)C(=O)Cn1cnc2c(=O)[nH]c(N)nc21 (some centres unmarked)
